Data: patent publication US20260374773A1, “MULTI-CYCLIC IRAK AND FLT3 INHIBITING COMPOUNDS AND USES THEREOF” (CHILDREN'S HOSPITAL MEDICAL CENTER, priority 2022, published 2026)

What was measured:
FLT3 = biological target: T1, FLT3 (Homo sapiens, UniProt P36888); experiment: RBC HotSpot kinase inhibition assay, FLT3; assay type: biochemical; details: isolated kinase, 33P-ATP, 2 h
T1 sequence (P36888 27-993): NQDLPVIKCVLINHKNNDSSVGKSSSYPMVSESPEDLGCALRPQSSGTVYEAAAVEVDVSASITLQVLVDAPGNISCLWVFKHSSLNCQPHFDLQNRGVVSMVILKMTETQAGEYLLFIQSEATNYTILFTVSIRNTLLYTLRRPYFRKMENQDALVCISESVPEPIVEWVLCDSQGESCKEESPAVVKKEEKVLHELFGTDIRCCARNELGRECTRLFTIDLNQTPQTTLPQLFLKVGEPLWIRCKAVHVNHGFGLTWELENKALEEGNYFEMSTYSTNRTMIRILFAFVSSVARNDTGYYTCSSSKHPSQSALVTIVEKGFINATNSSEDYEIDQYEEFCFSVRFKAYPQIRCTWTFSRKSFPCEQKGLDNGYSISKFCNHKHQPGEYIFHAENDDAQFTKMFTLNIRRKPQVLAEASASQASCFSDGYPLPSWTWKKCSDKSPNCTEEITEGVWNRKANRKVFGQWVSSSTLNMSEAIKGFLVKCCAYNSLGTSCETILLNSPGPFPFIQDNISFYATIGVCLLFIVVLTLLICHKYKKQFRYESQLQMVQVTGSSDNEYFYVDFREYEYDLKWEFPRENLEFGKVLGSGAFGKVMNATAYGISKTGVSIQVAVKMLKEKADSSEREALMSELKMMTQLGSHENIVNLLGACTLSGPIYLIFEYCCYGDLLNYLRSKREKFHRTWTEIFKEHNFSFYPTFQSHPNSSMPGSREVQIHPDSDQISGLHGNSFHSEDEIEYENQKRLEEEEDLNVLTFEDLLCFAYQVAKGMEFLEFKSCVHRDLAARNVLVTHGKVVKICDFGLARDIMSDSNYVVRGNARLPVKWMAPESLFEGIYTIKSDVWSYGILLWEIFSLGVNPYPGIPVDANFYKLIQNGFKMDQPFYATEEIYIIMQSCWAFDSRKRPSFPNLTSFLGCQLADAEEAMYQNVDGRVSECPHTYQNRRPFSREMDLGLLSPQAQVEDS
Text: (§1) This assay uses the isolated kinase enzyme. This assay is very useful for determining competition of the inhibitor for ATP and/or substrates and for measuring the kinetics of enzyme inhibition. […] Unlike kinase binding assays that measure competition for ATP, the HotSpot Kinase Assay is a functional assay that measures catalytic activity; as such it measures relative functional potency regardless of the mechanism of enzyme inhibition. This assay uses the form of the various enzymes that are easiest to express, which may not necessarily be the form of the enzyme that exist in the cell. (Sometimes the carboxy terminus has been truncated to aid in expression, or, if it is a receptor kinase, the enzyme itself is isolated from the other parts of the receptor that are involved in regulating kinase activity.)
(§2) The reagent used was as follows: Base Reaction buffer; 20 mM Hepes (pH 7.5), 10 mM MgCl2, 1 mM EGTA, 0.01% Brij35, 0.02 mg/ml BSA, 0.1 mM Na3VO4, 2 mM DTT, 1% DMSO. Required cofactors were added individually to each kinase reaction.
(§3) The reaction procedure was as follows: • 1) Substrates were prepared in freshly prepared Reaction Buffer. • 2) Any required cofactors were delivered to the substrate solution above. • 3) Kinase was delivered into the substrate solution and gently mixed. • 4) Compounds were delivered in 100% DMSO into the kinase reaction mixture by Acoustic technology (Echo550; nanoliter range), followed by incubation for 20 min at room temp. • 5) ^33P-ATP was delivered into the reaction mixture to initiate the reaction. • 6) The mixture was incubated for 2 hours at room temperature. • 7) Kinase activity was detected by P81 filter-binding method.
as §1, with “Although not wishing to be limited by theory, it is believed that sometimes” for “(Sometimes”, “activity.” for “activity.)”
(§4) The reagent used was as follows: Base Reaction buffer; 20 mM Hepes (pH 7.5), 10 mM MgCl2, 1 mM EGTA, 0.01% Brij35, 0.02 mg/ml BSA, 0.1 mM Na3 VO4, 2 mM DTT, 1% DMSO.
(§5) Required cofactors were added individually to each kinase reaction.
as §3, with “33P-ATP” for “^33P-ATP”

MOLM14 D835Y cells = experiment: MOLM14 D835Y cell viability (Cell Titer Glo); assay type: cell-based; details: Homo sapiens
Procedure: Both cell lines have activated FLT3 receptors, each of which carry additional resistance mutations in the kinase domain (D835Y and F691L, respectively).
(§6) MOLM14 D835Y and MOLM14 F691L cells were grown in RPMI-1640 media supplemented with 20% fetal bovine serum (FBS). For viability/cytotoxicity assessments, cells were seeded into 1536-well white polystyrene tissue culture-treated Greiner plates using a Multidrop Combi dispenser (ThermoFisher), in final volume 5 μL of growth media per well, at a density of 1000 cells per well. After cell addition, 23 nL of test compound were transferred into individual wells (22 doses tested for each test compound, with a 1:2 dilution series starting at 10 μM) via a 1536 pin-tool. Bortezomib (final concentration 2.3 μM) was used as a positive control for cell cytotoxicity. Plates were incubated for 48 hours at standard incubator conditions covered by a stainless steel gasketed lid to prevent evaporation. 48 hours post compound addition, 3 μL of Cell Titer Glo (Promega) were added to each well and plates were incubated at room temperature for 15 minutes with the stainless-steel lid in place. Luminescence readings were taken using a Viewlux imager (PerkinElmer) with a 2 second exposure time per plate.
This cell line has activated FLT3 receptors, which carries an additional resistance mutation in the kinase domain at D835Y.
as §6, with “D835Y” for “D835Y and MOLM14 F691L”, “mL” for “μL”, “mM)” for “μM)”

IRAK4 = biological target: T2, IRAK4 (Homo sapiens, UniProt Q9NWZ3); experiment: RBC HotSpot kinase inhibition assay, IRAK4; assay type: biochemical; details: isolated kinase, 33P-ATP, 2 h
T2 sequence (Q9NWZ3 1-460): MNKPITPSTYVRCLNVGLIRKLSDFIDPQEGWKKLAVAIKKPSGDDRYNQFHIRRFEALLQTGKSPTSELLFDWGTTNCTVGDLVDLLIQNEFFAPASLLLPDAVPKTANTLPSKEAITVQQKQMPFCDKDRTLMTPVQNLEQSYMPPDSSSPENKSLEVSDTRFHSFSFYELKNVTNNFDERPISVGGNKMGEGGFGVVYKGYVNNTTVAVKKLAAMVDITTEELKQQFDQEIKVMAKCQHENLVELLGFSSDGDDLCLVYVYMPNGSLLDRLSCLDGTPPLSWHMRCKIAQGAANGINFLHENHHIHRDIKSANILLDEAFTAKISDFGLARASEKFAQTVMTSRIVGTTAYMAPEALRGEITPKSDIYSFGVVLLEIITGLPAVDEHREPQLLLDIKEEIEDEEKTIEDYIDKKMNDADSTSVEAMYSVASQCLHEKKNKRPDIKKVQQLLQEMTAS
Text: as §1, §2, §3
as §1, with “Although not wishing to be limited by theory, it is believed that sometimes” for “(Sometimes”, “activity.” for “activity.)”
as §4, §5
as §3, with “33P-ATP” for “^33P-ATP”

IRAK1 = IRAK1 (Homo sapiens, UniProt P51617); experiment: RBC HotSpot kinase inhibition assay, IRAK1; assay type: biochemical; details: isolated kinase, 33P-ATP, 2 h
Text: as §1, §2, §3
as §1, with “Although not wishing to be limited by theory, it is believed that sometimes” for “(Sometimes”, “activity.” for “activity.)”
as §4, §5
as §3, with “33P-ATP” for “^33P-ATP”

IRAK1, sequence (P51617 whole entry): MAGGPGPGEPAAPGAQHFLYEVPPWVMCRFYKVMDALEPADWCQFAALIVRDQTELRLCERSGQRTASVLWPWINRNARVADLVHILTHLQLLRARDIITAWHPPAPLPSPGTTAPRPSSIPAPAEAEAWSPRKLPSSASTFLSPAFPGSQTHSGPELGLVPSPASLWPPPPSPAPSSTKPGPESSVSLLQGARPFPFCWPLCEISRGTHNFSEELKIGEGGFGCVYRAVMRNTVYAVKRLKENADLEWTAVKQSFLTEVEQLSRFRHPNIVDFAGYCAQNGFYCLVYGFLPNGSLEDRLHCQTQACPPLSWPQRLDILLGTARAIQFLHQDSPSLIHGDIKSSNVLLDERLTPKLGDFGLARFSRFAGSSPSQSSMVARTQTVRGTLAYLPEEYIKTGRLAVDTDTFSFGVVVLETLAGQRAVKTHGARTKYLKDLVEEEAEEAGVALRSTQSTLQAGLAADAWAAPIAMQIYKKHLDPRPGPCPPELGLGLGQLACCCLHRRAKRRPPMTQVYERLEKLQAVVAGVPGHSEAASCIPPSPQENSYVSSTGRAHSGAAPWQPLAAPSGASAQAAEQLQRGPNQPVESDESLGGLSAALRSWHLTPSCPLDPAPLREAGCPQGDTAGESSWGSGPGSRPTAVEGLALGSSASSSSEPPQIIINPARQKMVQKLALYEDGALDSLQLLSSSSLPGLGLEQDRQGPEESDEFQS

Row | IC50 (FLT3; Table 11) | IC50 (MOLM14 D835Y cells; MOLM-14, Table 16, 48 h) | IC50 (IRAK4; Table 11) | IC50 (IRAK1; Table 11) | IC50 (FLT3; Table 17) | IC50 (MOLM14 D835Y cells; MOLM-14, Table 22, 48 h) | IC50 (IRAK4; Table 17) | IC50 (IRAK1; Table 17) | Structure (SMILES)
1 | 32 nM | – | 491 nM | 6220 nM | – | – | – | – | F[C@H]1CNC[C@@H]1Nc1cccc(-c2cnn3cc(Cl)cnc23)n1 [Compound 14, 6-(6-chloropyrazolo[1,5-a]pyrimidin-3-yl)-N-((3S,4S)-4-fluoropyrrolidin-3-yl)pyridin-2-amine]
2 | 15 nM | – | 267 nM | 1290 nM | – | – | – | – | F[C@H]1CNC[C@@H]1Nc1cccc(-c2cnn3cc(C4CC4)cnc23)n1 [Compound 15, 6-(6-cyclopropylpyrazolo[1,5-a]pyrimidin-3-yl)-N-((3S,4S)-4-fluoropyrrolidin-3-yl)pyridin-2-amine]
3 | 4 nM | – | 61 nM | 4300 nM | – | – | – | – | FC(F)COc1cnc2c(-c3cccc(N[C@H]4CNC[C@@H]4F)n3)cnn2c1 [Compound 16, 6-(6-(2,2-difluoroethoxy)pyrazolo[1,5-a]pyrimidin-3-yl)-N-((3S,4S)-4-fluoropyrrolidin-3-yl)pyridin-2-amine]
4 | 19 nM | – | 295 nM | 3510 nM | – | – | – | – | CC(C)Oc1cnc2c(-c3cccc(N[C@H]4CNC[C@@H]4F)n3)cnn2c1 [Compound 17, N-((3S,4S)-4-fluoropyrrolidin-3-yl)-6-(6-isopropoxypyrazolo[1,5-a]pyrimidin-3-yl)pyridin-2-amine]
5 | 18 nM | – | 72 nM | 2320 nM | – | – | – | – | COc1cnc2c(-c3cccc(N[C@H]4CNC[C@@H]4F)n3)cnn2c1 [Compound 18, N-((3S,4S)-4-fluoropyrrolidin-3-yl)-6-(6-methoxypyrazolo[1,5-a]pyrimidin-3-yl)pyridin-2-amine]
6 | < 0.5 nM | 5 nM | < 0.5 nM | < 0.5 nM | – | – | – | – | COc1cn2ncc(-c3nc(N[C@@H]4CCCNC4)c(F)cc3F)c2nc1C1CC1 [Compound 23, (R)-6-(5-cyclopropyl-6-methoxypyrazolo[1,5-a]pyrimidin-3-yl)-3,5-difluoro-N-(piperidin-3-yl)pyridin-2-amine]

The next lines start with the compound.

Row | Structure (SMILES) | IC50 (FLT3; Table 11) | IC50 (MOLM14 D835Y cells; MOLM-14, Table 16, 48 h) | IC50 (IRAK4; Table 11) | IC50 (IRAK1; Table 11) | IC50 (FLT3; Table 17) | IC50 (MOLM14 D835Y cells; MOLM-14, Table 22, 48 h) | IC50 (IRAK4; Table 17) | IC50 (IRAK1; Table 17)
7 | COc1cn2ncc(-c3nc(N[C@H]4CNC[C@@H]4F)ccc3F)c2nc1C1CC1 [Compound 1, 6-(5-cyclopropyl-6-methoxypyrazolo[1,5-a]pyrimidin-3-yl)-5-fluoro-N-((3S,4S)-4-fluoropyrrolidin-3-yl)pyridin-2-amine] | < 0.5 nM | 9 nM | < 0.5 nM | 0.9 nM | – | – | – | –
8 | COc1cn2ncc(-c3ccnc(N[C@H]4CNC[C@@H]4F)n3)c2nc1C(C)(C)O [Compound 1a, 2-(3-(2-(((3S,4S)-4-fluoropyrrolidin-3-yl)amino)pyrimidin-4-yl)-6-methoxypyrazolo[1,5-a]pyrimidin-5-yl)propan-2-ol] | – | – | – | – | 2 nM | 257 nM | 9 nM | 162 nM
9 | COc1cn2ncc(-c3ccc(F)c(N[C@H]4CNC[C@@H]4F)n3)c2nc1C1CC1 [Compound 4, 6-(5-cyclopropyl-6-methoxypyrazolo[1,5-a]pyrimidin-3-yl)-3-fluoro-N-((3S,4S)-4-fluoropyrrolidin-3-yl)pyridin-2-amine] | < 0.5 nM | 36 nM | 0.9 nM | 4 nM | – | – | – | –
10 | COc1cn2ncc(-c3nc(N[C@@H]4CCCNC4)c(C#N)cc3F)c2nc1C1CC1 [Compound 8, (R)-6-(5-cyclopropyl-6-methoxypyrazolo[1,5-a]pyrimidin-3-yl)-5-fluoro-2-(piperidin-3-ylamino)nicotinonitrile] | < 0.5 nM | – | < 0.5 nM | < 0.5 nM | – | – | – | –
11 | COc1cn2ncc(-c3cncc(N[C@H]4CNC[C@@H]4F)n3)c2nc1C1CC1 [Compound 10a, 6-(5-cyclopropyl-6-methoxypyrazolo[1,5-a]pyrimidin-3-yl)-N-((3S,4S)-4-fluoropyrrolidin-3-yl)pyrazin-2-amine] | – | – | – | – | < 0.5 nM | 81 nM | 0.7 nM | 6 nM
